According to patent US5093256A, “Essentially purified, thermostable and alkalophilic lipase from Bacillus Sp. A30-1 ATCC 53841” (priority 1989, dated 1992):
Like-named read-outs stand apart in the source and are kept apart here.

Tested on: Bacillus sp. A30-1 ATCC No. 53841 thermostable lipase
Conditions: 30° C., peroxide removed by dialysis before assay; for residual activity (of the original activity) after incubation with hydrogen peroxide: 0.5% hydrogen peroxide
Method: Lipase production was routinely assayed by monitoring the fatty acid released from corn oil. The assay is based on the fact that the dye Rhodamine 6G in benzene solution reacts with an acid to form a chromophore which can be spectrophotometrically quantified. One tenth mL of cell free culture broth (obtained by removing cells by centrifugation) was mixed with 0.02 mL of a 25% corn oil solution in 100 mM Tris-Hcl buffer (pH 9.5) and then incubated at 60° C. for 1 hr. After appropriate time the reaction was stopped with the addition of 0.1N HCl in 95% ethanol. The resulting fatty acids were extracted with petroleum ether, and evaporated to dryness under vacuum. Subsequently, diluted Rhodamine 6G stock solution was added. After fifteen minutes at room temperature the absorbance of the resulting reaction mixture was read at 515 nm. One unit of lipase is defined as the amount that will liberate 1 μmole of fatty acid per hour under the assay condition.
To an aliquot of enzyme solution containing a known amount of activity, different amounts of hydrogen peroxide were added to final concentration of 0.5, 1, 2, and 4% respectively. These were kept at 30° C. for different periods of time. Then hydrogen peroxide contained in enzyme solution was eliminated by dialysis against water. Residual activities were measured by the analytical methods described above.

OO [hydrogen peroxide]
residual activity (of the original activity) after incubation with hydrogen peroxide (1 hr): 100%
residual activity (of the original activity) after incubation with hydrogen peroxide (19 hrs): 60%
residual activity after incubation with hydrogen peroxide (4% hydrogen peroxide, 5 hrs): 75%
